Laboratory results from ChEMBL document CHEMBL4622919, “Hypersonins A-D, Polycyclic Polyprenylated Acylphloroglucinols with a 1,2-seco-Homoadamantane Architecture from Hypericum wilsonii” (J Nat Prod, 2020).

Tested on: Splenocyte
Test: Immunosuppressive activity in BALB/c mouse splenocytes assessed as reduction in anti-mouse CD3/CD28-induced cell proliferation after 72 hrs by flow cytometric analysis
Format: functional, cell-based

## COC(=O)[C@]12C[C@H](C(C)(C)O)C(C)(C)[C@H]1C[C@H]1C[C@@](CC=C(C)C)(C2=O)C(O)=C(C(=O)C(C)C)C1(C)C
  IC50: 8.3 µM
